# From patent US10584127B2, “3,3-difluoropiperidine carbamate heterocyclic compounds as NR2B NMDA receptor antagonists” (Rugen Holdings (Cayman) Limited, priority 2015, dated 2020)
# Key:
# CYP2D6 = CYP2D6 (Homo sapiens (Human), UniProt P10635); experiment: CYP P450 enzyme inhibition, pooled human liver microsome; assay type: in vitro ADME; conditions: HLM, dextromethorphan 5 μM
# Experimental: Those CYP isoforms and their corresponding probe substrates are as follows: CYP1A2 (phenacetin, 30 μM), CYP2C9 (tolutamide, 100 μM), CYP2C19 (S-mephenytoin, 40 μM), CYP2D6 (dextromethorphan, 5 μM) and CYP3A4 (midazolam, 1 μM). All probe substrates were used at concentrations near or below their Kms. For experiment, a reaction mixture of test compound at 10 μM or in serial dilution, CYP probe substrate described above and 0.2 mg/mL pooled HLM in phosphate buffer, pH 7.4 in a final volume of 200 μL was pre-incubated at 37° C. for 10 minutes in triplicate. The reaction was initiated by addition of NADPH at final concentration of 1 mM. The reaction was terminated after 10 minutes (CYP1A2, CYP2D6 and CYP3A4) or 30 minutes (CYP2C9 and CYP2C19) by addition of 100 μL ice-cold acetonitrile with internal standard (IS). The samples were then centrifuged at 13,000 rpm and the supernatants were injected to LC-MS/MS (Agilent Technologies) to quantify the concentration of the specific metabolites of the probe substrates formed by individual CYP450 isoforms. The inhibition ratio is calculated as: (Mt−M0)/Mwater×100% in which Mt and M0 represent the concentrations of the specific probe substrate metabolite, which was formed by individual CYP450 isoform, at the beginning and end of the reaction in the presence of test compound; while Mwater represents the concentration of the specific metabolite at the end of the reaction in the absence of test compound. Test compound concentration-dependent response data experiments performed in triplicate.
# [1] = tested on: formalin-induced nociceptive behavior; experiment: Rat Formalin Model; assay type: in vivo; conditions: rat, 10, 30 and 60 mpk i.p., mesylate salt
# Experimental: The rat formalin model is a tonic model of continuous pain resulting from formalin-induced spontaneous nociceptive behaviors. Intra-paw injection of formalin is a commonly used model to measure spontaneous nociceptive behaviors in rodents (Dubuisson, D. and Dennis, S. G. Pain 4:161, 1977). Subcutaneous plantar injection of formalin causes a bi-phasic nocifensive behavioral response in rodents. The early phase (phase-I) lasts for about 5-10 min following which an interphase occurs without any discernible nociceptive reactions after which the late phase (phase-II) nociceptive reaction ensues continuing from about 20-60 min following formalin injection. Formalin model is a model of tonic, persistent pain, and is widely used for rapid screening of novel analgesic compounds. […] In the present example, effects of test item were assessed in 0-5 minutes from the early phase (phase-I) and 20-35 minutes from the late phase (phase-II) of formalin-induced nociceptive behavior. […]
# For all groups, animals were acclimated to the observation chamber for 15 minutes immediately prior to formalin injection. All animals received an intraplantar subcutaneous injection of 50 μL of 5% formalin into the left hind paw and then placed immediately into an observation chamber and formalin-evoked spontaneous nociceptive behaviors in the rats were continuously recorded for 0-60 min using a commercial camcorder. […]
# [2] = tested on: electroconvulsive threshold (tonic convulsions); experiment: Electroconvulsive Threshold Test (ECT); assay type: in vivo, rats; conditions: rats, 3, 10 and 30 mpk p.o., mesylate salt
# Experimental: Rats were administered ECS (rectangular current: 0.6 ms pulse width, 1.5 s duration, 200 Hz) via earclip electrodes connected to a constant current shock generator (Ugo Basile: type 7801). Test compounds were administered by oral gavage (p.o.) 1 hour before the test at a dose volume of 5 mL/kg.
# Treatment groups of 20 rats were exposed to ECS as follows: The first animal was exposed to 30 mA of ECS. […] (increases of 5 mA) until the first tonic convulsion was observed. Once the first tonic convulsion was observed, the intensity of ECS was decreased by 2 mA for the next animal and then decreased or increased by 2 mA from animal to animal depending on whether the previous animal convulsed or not. If the first animal did convulse (tonic convulsions) within 5 seconds, animal n°2 is exposed to 25 mA, etc . . . (decreases of 5 mA) until the absence of tonic convulsions was observed. At this point, the intensity of ECS was increased by 2 mA for the next animal and then decreased or increased by 2 mA from animal to animal depending on whether the previous animal convulsed or not. The minimum current intensity applied is 5 mA and the maximum 95 mA. The first 5 animals serve to approach threshold current and were not included in the analysis. The results are presented as the mean current intensity administered to the final 15 animals of a group. The test was performed blind. A positive percent change indicates an anticonvulsant effect. A negative percent change indicates a proconvulsant effect. The test substance was evaluated at 4 doses, typically using 0.5% dimethylsulfoxide, 4% hydroxypropyl-b-cyclodextrin water as a vehicle, and administered p.o. 60 minutes before ECS, and compared with a vehicle control group. Diazepam (16 mg/kg p.o.), administered under the same experimental conditions, was used as reference substance. The experiment included 6 groups. Data with the test substance was analyzed by comparing treated groups with vehicle control using one-way ANOVA followed by Dunnett's t tests.
# Chain of CYP2D6 (P10635 whole entry): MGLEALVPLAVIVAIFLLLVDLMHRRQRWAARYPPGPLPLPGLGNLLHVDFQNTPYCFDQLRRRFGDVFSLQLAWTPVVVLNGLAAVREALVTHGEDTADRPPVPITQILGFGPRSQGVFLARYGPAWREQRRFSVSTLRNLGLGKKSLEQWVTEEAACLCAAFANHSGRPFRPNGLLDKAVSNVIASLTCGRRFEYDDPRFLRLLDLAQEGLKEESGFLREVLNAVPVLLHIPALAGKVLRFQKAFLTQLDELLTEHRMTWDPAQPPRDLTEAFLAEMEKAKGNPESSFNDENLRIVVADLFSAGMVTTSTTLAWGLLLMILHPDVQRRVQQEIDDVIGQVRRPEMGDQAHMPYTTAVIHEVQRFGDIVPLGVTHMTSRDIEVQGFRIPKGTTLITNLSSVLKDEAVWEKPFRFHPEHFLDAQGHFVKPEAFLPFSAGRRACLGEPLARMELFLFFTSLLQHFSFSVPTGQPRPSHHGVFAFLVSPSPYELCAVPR
smiles,measurement,setting,value
"Cc1ccc(COC(=O)N2CC[C@H](CNc3nccn4cnnc34)C(F)(F)C2)cc1 [Compound E1-1.2, (+)-R-4-methylbenzyl 4-(([1,2,4]triazolo[4,3-a]pyrazin-8-ylamino)methyl)-3,3-difluoropiperidine-1-carboxylate]",CYP2D6 @ 10 μM (%),CYP2D6,14%
same,cumulative time spent on nociceptive behavior in phase I (0-5 mins),[1],decreased
same,cumulative time spent on nociceptive behavior in phase II (20-35 mins),[1],decreased
same,activity on electroconvulsive threshold,[2],robust anticonvulsant activity
